This test is described as follows: Effective concentration of compound was determined for electrophysiological properties on Ionotropic glutamate receptor AMPA 1 (GluR1) using […] Xenopus laevis oocytes.

On to `NC(Cc1o[nH]c(=O)c1Cl)C(=O)O` [(R,S)-2-amino-3-(4-chloro-3-hydroxy-5-isoxazolyl)propionate], for which the EC50 worked out at 4.7 µM.

As usually defined, the EC50 is the concentration at which the effect is half-maximal. Low values mean greater potency, high ones weaker potency.

The values are drawn from BindingDB's records for doi:10.1021/jm020588f (The Danish University of Pharmaceutical Sciences, 2003).
